The conditions of this data set: from C=CCC(C)(C)COC(=O)N[C@H](C(=O)N1C[C@H](Oc2cc(=O)[nH]c3cc(OC)c(C=C)cc23)C[C@H]1C(=O)OC)C1CCCCC1; rcm bond; Zhan 1b catalyst; DCM; 5.0 mM; 40.0 °C; 32.0 h.

With `COC(=O)[C@@H]1C[C@@H]2CN1C(=O)[C@H](C1CCCCC1)NC(=O)OCC(C)(C)C/C=C/c1cc3c(cc(=O)[nH]c3cc1OC)O2`, the ring closure, yield of all isomers came out at 99%.
